# Laboratory results reported in PubChem BioAssay AID2060504 (Molecular Pharmacology Branch, DTP, NCI, 2025).
# System: 636577-100-R-J1-PDC complex spheroid viability
# Assay: Anticancer human tumor 636577-100-R-J1-PDC patient-derived endometrial adenocarcinoma cell line growth inhibition [GQUAD]
# Conditions: for IC50: curve of first compound; for viability, T/C: stronger effect = lower value
# Description: DNA G-quadruplex Stabilizer Agents in Combinations in Complex Spheroids
# A high-throughput screen of multi-cell type tumor spheroids was designed to identify active combinations of DNA G-quadruplex stabilizer agents and targeted small molecules. Complex spheroids include a stromal component modeled by human endothelial cells (HUVEC) and fibroblasts modeled by human mesenchymal stem cells (MSCs). The concentration ranges selected for each drug and investigational agent were based upon clinically achievable concentrations if the clinical Cmax of the agent was known.
# Compounds. The drugs and investigational agents: pidnarulex (CX-5461; NSC782164), APTO-253 (NSC789042), BRACO-19 (NSC847499), peposertib (NSC802822), ceralasertib (NSC780249), elimusertib (NSC800525), camonsertib (NSC841442), AZD-1390 (NSC803789), olaparib (NSC753686), talazoparib (NSC767125), ART-558 (NSC835418), sotorasib (NSC818433), MRTX-1133 (NSC836407), SN-38 (NSC673596), topotecan (NSC609699), etoposide (NSC141540), doxorubicin (NSC123127), gemcitabine (NSC613327), 5-fluorouracil (NSC19893), paclitaxel (NSC125973), vemurafenib (NSC761431), panobinostat (NSC761190), R-306465 (JNJ-16241199; NSC773264), adavosertib (NSC754352), TP-3654 (NSC805149), carboplatin (NSC241240), KSQ-4279 (NSC840948), and staurosporine (NSC755774) were obtained from the National Cancer Institute (NCI) Developmental Therapeutics Program Chemical Repository (34). The FDA-approved anticancer drug set is available from the NCI Developmental Therapeutics Program. […] The stock solutions were prepared in dimethyl sulfoxide (DMSO, Sigma-Aldrich, St. Louis, MO, cat. D2650) at 800-fold the tested concentration and stored at -70 degrees C prior to their use. All drugs and investigational agents were tested over a range starting from a high concentration at or near the clinical Cmax and decreasing in half-log increments. If the clinical Cmax for an agent had not been determined, the highest concentration tested was 10 microM.
# 2.3 Cell Culture. All cells were maintained in an incubator at 37 degrees C and 5% CO2 with 95% humidity. The PDC lines were cultured according to standard operating procedures established by the NCI PDMR. All PDCs were thawed and cultured in Matrigel-coated flasks prepared with a working solution of 1X Ham's F-12 nutrient mix, without supplementation (Invitrogen, cat. 11765054), 100 U/mL penicillin-streptomycin (Invitrogen, cat. 15140122), and 2.5% Matrigel (Corning Inc., cat. 354248) for the first three passages. The 857933-349-R-J2-PDC line was cultured in 6C/Colon 1B media, which includes advanced DMEM/F-12 (Thermo Fisher Scientific, cat. 12634028), 10 mM HEPES (Thermo Fisher Scientific, cat. 15630080), 1X GlutaMAX supplement (Thermo Fisher Scientific, cat. 35050061), 0.1 mg/mL primocin (InvivoGen, cat. ant-pm-2), 10% defined fetal bovine serum, heat inactivated (HyClone Laboratories Inc., cat. SH30070.03HI), 50% L-WRN conditioned media (ATCC, cat. CRL-3276), 1.25 mM N-Acetyl-L-cysteine (Sigma-Aldrich, cat. A9165), 10 mM nicotinamide (Sigma-Aldrich, cat. N0636), 1X B-27 supplement (Thermo Fisher Scientific, cat. 17504044), 1X N-2 supplement (Thermo Fisher Scientific, cat. 17502048), 10 microM Y-27632 dihydrochloride (Tocris Bioscience, cat. 1254), and 50 ng/mL human EGF recombinant protein (Thermo Fisher Scientific, cat. PHG0311). The 485176-168-R4-J1-PDC line was cultured in Panc media, which includes all 6C/Colon 1B media components plus 100 ng/mL human FGF-10 (Thermo Fisher Scientific, cat. 100-26), 500 nM SB-431542 (Selleckchem, cat. S1067), and gastrin (Tocris, cat. 3006).
# […]
# [1] = second compound 0.0316 µM, first compound 0.0316 µM
# [2] = second compound 0.0316 µM, first compound 0.1 µM
# [3] = second compound 0.0316 µM, first compound 0.316 µM
# [4] = second compound 0.0316 µM, first compound 1 µM
# [5] = second compound 0.0316 µM, first compound 3.16 µM
# [6] = second compound 0.0316 µM, first compound 10 µM
# [7] = second compound 0.1 µM, first compound 0.0316 µM
# [8] = second compound 0.1 µM, first compound 0.1 µM
# [9] = second compound 0.1 µM, first compound 0.316 µM
# [10] = second compound 0.1 µM, first compound 1 µM
# [11] = second compound 0.1 µM, first compound 3.16 µM
# [12] = second compound 0.1 µM, first compound 10 µM
# [13] = second compound 0.316 µM, first compound 0.0316 µM
# [14] = second compound 0.316 µM, first compound 0.1 µM
# [15] = second compound 0.316 µM, first compound 0.316 µM
# [16] = second compound 0.316 µM, first compound 1 µM
# [17] = second compound 0.316 µM, first compound 3.16 µM
# [18] = second compound 0.316 µM, first compound 10 µM
# [19] = second compound 1 µM, first compound 0.0316 µM
# [20] = second compound 1 µM, first compound 0.1 µM
# [21] = second compound 1 µM, first compound 0.316 µM
# [22] = second compound 1 µM, first compound 1 µM
# [23] = second compound 1 µM, first compound 3.16 µM
# [24] = second compound 1 µM, first compound 10 µM
# [25] = second compound 3.16 µM, first compound 0.0316 µM
# [26] = second compound 3.16 µM, first compound 0.1 µM
# [27] = second compound 3.16 µM, first compound 0.316 µM
# [28] = second compound 3.16 µM, first compound 1 µM
# [29] = second compound 3.16 µM, first compound 3.16 µM
# [30] = second compound 3.16 µM, first compound 10 µM
# [31] = second compound 10 µM, first compound 0.0316 µM
# [32] = second compound 10 µM, first compound 0.1 µM
# [33] = second compound 10 µM, first compound 0.316 µM
# [34] = second compound 10 µM, first compound 1 µM
# [35] = second compound 10 µM, first compound 3.16 µM
# [36] = second compound 10 µM, first compound 10 µM
# 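Also: viability read after seven days of drug exposure.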
# 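For viability, T/C in this document: luminescence signal used as a proxy for viable cells; 100% = DMSO vehicle control wells.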
structure (smiles),measurement,setting,value
Cc1cccc(N(C)C(=O)C2C(O)CCN2c2nc(C)cc(C(F)(F)F)c2C#N)c1 (centres undefined) + Cc1[nH]c2ccc(F)cc2c1-c1nc2c3cccnc3c3ncccc3c2[nH]1,IC50,second compound 0.0316 µM,3160 nM
same,IC50,second compound 0.1 µM,> 10000 nM
same,IC50,second compound 0.316 µM,> 10000 nM
same,IC50,second compound 1 µM,> 10000 nM
same,IC50,second compound 3.16 µM,< 31.6 nM
same,IC50,second compound 10 µM,> 10000 nM
same,"viability, T/C",[1],89%
same,"viability, T/C",[2],77.5%
same,"viability, T/C",[3],89.5%
same,"viability, T/C",[4],39.3%
same,"viability, T/C",[5],61.9%
same,"viability, T/C",[6],61%
same,"viability, T/C",[7],76.3%
same,"viability, T/C",[8],90.3%
same,"viability, T/C",[9],81%
same,"viability, T/C",[10],57.7%
same,"viability, T/C",[11],79%
same,"viability, T/C",[12],69.2%
same,"viability, T/C",[13],71.4%
same,"viability, T/C",[14],85.8%
same,"viability, T/C",[15],97.8%
same,"viability, T/C",[16],48.6%
same,"viability, T/C",[17],77.5%
same,"viability, T/C",[18],72.4%
same,"viability, T/C",[19],62.8%
same,"viability, T/C",[20],65.3%
same,"viability, T/C",[21],72.4%
same,"viability, T/C",[22],54.9%
same,"viability, T/C",[23],49.9%
same,"viability, T/C",[24],54.2%
same,"viability, T/C",[25],37.2%
same,"viability, T/C",[26],40.3%
same,"viability, T/C",[27],54.2%
same,"viability, T/C",[28],48.6%
same,"viability, T/C",[29],39.1%
same,"viability, T/C",[30],41.3%
same,"viability, T/C",[31],65.1%
same,"viability, T/C",[32],58.8%
same,"viability, T/C",[33],80.8%
same,"viability, T/C",[34],55.1%
same,"viability, T/C",[35],81%
same,"viability, T/C",[36],56.4%
CC1COCCN1c1cc(C2(S(C)(=N)=O)CC2)nc(-c2ccnc3[nH]ccc23)n1 (centres undefined) + Cc1[nH]c2ccc(F)cc2c1-c1nc2c3cccnc3c3ncccc3c2[nH]1,IC50,second compound 0.0316 µM,1180 nM
same,IC50,second compound 0.1 µM,652 nM
same,IC50,second compound 0.316 µM,678 nM
same,IC50,second compound 1 µM,501 nM
same,IC50,second compound 3.16 µM,< 31.6 nM
same,IC50,second compound 10 µM,394 nM
same,"viability, T/C",[1],57.4%
same,"viability, T/C",[2],83.1%
same,"viability, T/C",[3],94.3%
same,"viability, T/C",[4],54.7%
same,"viability, T/C",[5],27.9%
same,"viability, T/C",[6],15.1%
same,"viability, T/C",[7],93.4%
same,"viability, T/C",[8],72%
same,"viability, T/C",[9],64.8%
same,"viability, T/C",[10],43.1%
same,"viability, T/C",[11],27.2%
same,"viability, T/C",[12],15.7%
same,"viability, T/C",[13],51.2%
same,"viability, T/C",[14],101%
same,"viability, T/C",[15],63.3%
same,"viability, T/C",[16],40.4%
same,"viability, T/C",[17],23.5%
same,"viability, T/C",[18],12.2%
same,"viability, T/C",[19],50.7%
same,"viability, T/C",[20],77.8%
same,"viability, T/C",[21],60.8%
same,"viability, T/C",[22],33.2%
same,"viability, T/C",[23],22.3%
same,"viability, T/C",[24],12.8%
same,"viability, T/C",[25],28.7%
same,"viability, T/C",[26],49%
same,"viability, T/C",[27],31%
same,"viability, T/C",[28],23.1%
same,"viability, T/C",[29],15.9%
same,"viability, T/C",[30],9.24%
same,"viability, T/C",[31],46%
same,"viability, T/C",[32],59.8%
same,"viability, T/C",[33],56.5%
same,"viability, T/C",[34],32.5%
same,"viability, T/C",[35],18.6%
same,"viability, T/C",[36],12.9%
